Reference: PMC8890100 (Chemical Science, 2022)

Legend:
[1] = molecular target: T1, PPARγ–LBD (Homo sapiens, UniProt P37231); assay: 2D fluorescence anisotropy; assay type: binding; conditions: ligand excess vs no ligand
T1 sequence (P37231 238-503 limits assumed): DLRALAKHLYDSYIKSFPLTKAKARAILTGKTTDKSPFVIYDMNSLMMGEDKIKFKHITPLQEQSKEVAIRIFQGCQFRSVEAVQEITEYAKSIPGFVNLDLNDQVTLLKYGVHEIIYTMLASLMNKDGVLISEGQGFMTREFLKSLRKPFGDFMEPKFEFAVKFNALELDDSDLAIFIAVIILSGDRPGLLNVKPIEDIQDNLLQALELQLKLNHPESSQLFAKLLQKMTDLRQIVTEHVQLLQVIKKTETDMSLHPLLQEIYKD

[2] = molecular target: PPARγ·MED1 (Homo sapiens, UniProt P37231); assay: 2D-ITC of ligand to PPARγ in the presence of MED1 in cell and syringe; assay type: binding; conditions: for cooperativity value α: ITC, PPARγ·ligand·MED1 complex; for −TΔΔS: cooperative effect of MED1 on ligand binding

## CC[C@@H](Oc1cccc(CN(CCCOc2ccc(OC)cc2)c2nc3ccccc3o2)c1)C(=O)O [Pemafibrate]
[1]
  EC50 shift (fold enhancement of PPARγ/MED1 EC50): smaller EC50 shift

## CN(CCOc1ccc(CC2SC(=O)NC2=O)cc1)c1ccccn1 (centres unmarked) [Rosiglitazone]
[2]
  cooperativity value α: 28
  −TΔΔS: -2.3 kcal/mol

## CCCc1nc2c(C)cc(-c3nc4ccccc4n3C)cc2n1Cc1ccc(-c2ccccc2C(=O)O)cc1 [Telmisartan]
[1]
  EC50 shift (fold enhancement of PPARγ/MED1 EC50): smaller EC50 shift

## CCO[C@@H](Cc1ccc(OCCc2ccc(OS(C)(=O)=O)cc2)cc1)C(=O)O [Tesaglitazar]
[1]
  EC50 shift (fold enhancement of PPARγ/MED1 EC50): 24 fold
[2]
  cooperativity value α: 18
  −TΔΔS: -3.5 kcal/mol
[2]; ligand binding to PPARγ in the presence of MED1
  ΔH: 21.0 kcal/mol
